{
  "source": "patent US20210340629A1",
  "about": "“BIOMARKERS FOR CANCER THERAPY” (The Council of the Queensland Institute of Medical Research, priority 2018, published 2021)",
  "key": {"[1]": {"test_system": "D05 and C008 melanoma cell lines", "test": "Proliferation by IncuCyte Zoom real time cell imaging, sensitive lines", "assay_type": "cell-based, human", "method": "Four cell lines were then chosen for further analysis. These were C006 (NRAS mt), C092 (Triple wt), C008 (NF1 mt) and D05 (BRAF mt). These four lines are representatives of the 4 cutaneous melanoma genomic subtypes and include 2 lines (C008 and D05) that were very sensitive to the inhibitor and 2 lines that were less sensitive (C006 and C092). Proliferation of these lines was evaluated by real time cell imaging using IncuCyte Zoom where cells were grown for 48 hours in the presence or absence of 5 μM UNC0642.\n(§1) For proliferation studies, cells (5×10^3) were seeded in 96-place wells and allowed to adhere overnight, and incubated in fresh growth medium in the presence of either the G9a inhibitor UNC0642 (Sigma Aldrich) or the vehicle control DMSO (Sigma Aldrich). Proliferation was evaluated via real-time imaging using IncuCyte Zoom (Essen BioScience) and/or by performing a 3-(4,5-dimethylthiazol-2-yl)-2,5-diphenyltetrazolium bromide ([…]) assay. After monitoring the cells, 20 μL of MTT (5 mg/mL; Sigma-Aldrich) was added. The plates were incubated at 37° C. for 3 h before the supernatants were removed, and 100 μL of isopropanol was added to each well. The absorbance value (optical density) of each well was measured at 570 nm."}, "[2]": {"test_system": "melanoma cell lines", "test": "Cell viability by MTT assay, melanoma cell lines", "assay_type": "cell-based, human", "conditions": "5 μM, 48 hours, vs vehicle (DMSO), FIG. 2", "method": "UNC0642 was purchased from Sigma Aldrich. The panel of human melanoma cell lines, derived from cutaneous melanomas, is shown in Table 1 and the cells have all been previously described. Cells were maintained in Roswell Park Memorial Institute (RPMI) 1640 supplemented with 10% fetal bovine serum (FBS), 100 U/mL penicillin, and 100 µg/mL streptomycin in a humidified atmosphere of 5% CO2 at 37° C. Normal melanocytes were grown in Clonetics™ MGM™-4 Melanocyte Growth Medium-4 supplemented with CaCl2, phorbol-12-myristate 13-acetate (PMA), recombinant human fibroblast growth factor basic (rhFGF-B), recombinant human insulin (rh-insulin), hydrocortisone, bovine pituitary extract (BPE), FBS and GA-1000 (30 μg/ml Gentamycin and 15 ng/ml Amphotericin) (Lonza).\nas §1, with “The plates were incubated at 37° C. for 3 h before the supernatants were removed, and 100 μL of isopropanol was added to each well.” left out"}},
  "data": [
    {"smiles": "COc1cc2c(NC3CCN(C(C)C)CC3)nc(N3CCC(F)(F)CC3)nc2cc1OCCCN1CCCC1", "note": "[UNC0642]", "values": [
      {"measurement": "proliferation", "setting": "[1]; D05 and C008, 5 μM, 48 hours, compared to vehicle control, data not shown", "result": "significant reduction in proliferation"},
      {"measurement": "number of cells", "setting": "[1]; over 48 hours treatment, 5 μM, FIG. 3A", "result": "significantly decreased"},
      {"measurement": "Cell survival (cell viability, MTT assay)", "setting": "[2]", "result": "significantly attenuated"}
    ]}
  ]
}
